Experimental data as given in patent publication US8247211B2, “Glycopeptide antibiotics” (American Cyanamid Company, priority 2001, dated 2012).

What was measured:
Experiment in all cases: In vitro antibacterial evaluation: minimum inhibitory concentration (MIC), broth dilution method
Format in all cases: cell-based
Conditions in all cases: 18 hours at 35° C.
Escherichia coli = test system: Escherichia coli
Summary of the method: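 Susceptibility determined by NCCLS-recommended broth dilution (M7-A2), Muller-Hinton II […]. Concentration span 64-0.06 μg/mL, inoculum 5×10^5 CFU/mL. Isolates include strains resistant to methicillin, penicillin and/or vancomycin.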

Streptococcus sp. = test system: Streptococcus sp.
Summary of the method: (§1)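 Using Muller-Hinton II […] and an inoculum of 5×10^5 CFU/mL, antibiotic dilutions from 64 down to 0.06 μg/mL were tested following NCCLS M7-A2. The MIC is the lowest concentration inhibiting growth, including in methicillin-, penicillin- or vancomycin-resistant clinical isolates.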

Staphylococcus sp. = test system: Staphylococcus sp.
Summary of the method: as §1

Enterococcus sp. = test system: Enterococcus sp.
Summary of the method: as §1

[1] = Streptococcus agalactiae (GC 4564)
[2] = Streptococcus pneumoniae (GC 4565)
[3] = Coagulase Negative Staphylococcus (GC 4547)
[4] = Coagulase Negative Staphylococcus (GC 4548)
[5] = Coagulase Negative Staphylococcus (GC 4549)
[6] = Coagulase Negative Staphylococcus (GC 4551)
[7] = Staphylococcus aureus (ATCC 29213)
[8] = Staphylococcus aureus (GC 1131)
[9] = Staphylococcus aureus (GC 4541)
[10] = Staphylococcus aureus (GC 4542)
[11] = Staphylococcus aureus (GC 4544)
[12] = Staphylococcus aureus (GC 4545)
[13] = Staphylococcus aureus-SMITH (GC 4543)
[14] = Staphylococcus haemolyticus (GC 4546)
[15] = broth dilution, strain ATCC 29213
[16] = Enterococcus faecalis (ATCC 29212)
[17] = Enterococcus faecalis (GC 2242)
[18] = Enterococcus faecalis (GC 4552)
[19] = Enterococcus faecalis (GC 4553)
[20] = Enterococcus faecalis (GC 4554)
[21] = broth dilution, strain ATCC 29212

α-O-[(Dodecylanaino)carbonyl]-cyclo[glycyl-β-methylphenylalanyl-O-(4-O-hexopyranosylhexopyranosyl)tyrosyl-3-(2-iminoimidazolidin-4-yl)seryl-3-(3-hexopyranosyl-2-iminoimidazoliclin-4-yl)serylseryl] [Example 254]
16 µg/mL: MIC Streptococcus pneumoniae (GC 4565) (Streptococcus sp.; [2]) | MIC Streptococcus pneumoniae (GC 4565) (Streptococcus sp.; broth dilution, strain GC 4565)
8 µg/mL: MIC Escherichia coli (GC 4559) (Escherichia coli) | MIC Streptococcus pyogenes (ID-3187) (Streptococcus sp.; Streptococcus pyogenes (ID-3187)) | MIC Streptococcus pyogenes (ID-3187) (Streptococcus sp.; broth dilution, strain ID-3187) | MIC Staphylococcus aureus (GC 4545) (Staphylococcus sp.; [12]) | MIC Staphylococcus aureus (GC 4545) (Staphylococcus sp.; broth dilution, strain GC 4545) | MIC Enterococcus faecalis (ATCC 29212) (Enterococcus sp.; [16]) | MIC Enterococcus faecalis (GC 2242) (Enterococcus sp.; [17]) | MIC Enterococcus faecalis (GC 4552) (Enterococcus sp.; [18]) | MIC Enterococcus faecalis (GC 4554) (Enterococcus sp.; [20]) | MIC Enterococcus faecium (GC 4556) (Enterococcus sp.; Enterococcus faecium (GC 4556)) | MIC Enterococcus faecalis (ATCC 29212) (Enterococcus sp.; [21]) | MIC Enterococcus faecalis (GC 2242) (Enterococcus sp.; broth dilution, strain GC 2242) | MIC Enterococcus faecalis (GC 4552) (Enterococcus sp.; broth dilution, strain GC 4552) | MIC Enterococcus faecalis (GC 4554) (Enterococcus sp.; broth dilution, strain GC 4554) | MIC Enterococcus faecium (GC 4556) (Enterococcus sp.; broth dilution, strain GC 4556)
4 µg/mL: MIC Escherichia coli (GC 4560) (Escherichia coli) | MIC Streptococcus agalactiae (GC 4564) (Streptococcus sp.; [1]) | MIC Streptococcus agalactiae (GC 4564) (Streptococcus sp.; broth dilution, strain GC 4564) | MIC Coagulase Negative Staphylococcus (GC 4547) (Staphylococcus sp.; [3]) | MIC Coagulase Negative Staphylococcus (GC 4548) (Staphylococcus sp.; [4]) | MIC Coagulase Negative Staphylococcus (GC 4551) (Staphylococcus sp.; [6]) | MIC Staphylococcus aureus (ATCC 29213) (Staphylococcus sp.; [7]) | MIC Staphylococcus aureus (GC 1131) (Staphylococcus sp.; [8]) | MIC Staphylococcus aureus (GC 4541) (Staphylococcus sp.; [9]) | MIC Staphylococcus aureus (GC 4542) (Staphylococcus sp.; [10]) | MIC Staphylococcus aureus (GC 4544) (Staphylococcus sp.; [11]) | MIC Staphylococcus aureus-SMITH (GC 4543) (Staphylococcus sp.; [13]) | MIC Staphylococcus haemolyticus (GC 4546) (Staphylococcus sp.; [14]) | MIC Staphylococcus aureus (ATCC 29213) (Staphylococcus sp.; [15]) | MIC Staphylococcus aureus (GC 1131) (Staphylococcus sp.; broth dilution, strain GC 1131) | MIC Staphylococcus aureus (GC 4541) (Staphylococcus sp.; broth dilution, strain GC 4541) | MIC Staphylococcus aureus (GC 4542) (Staphylococcus sp.; broth dilution, strain GC 4542) | MIC Staphylococcus aureus-SMITH (GC 4543) (Staphylococcus sp.; broth dilution, strain GC 4543) | MIC Staphylococcus aureus (GC 4544) (Staphylococcus sp.; broth dilution, strain GC 4544) | MIC Staphylococcus haemolyticus (GC 4546) (Staphylococcus sp.; broth dilution, strain GC 4546) | MIC Coagulase Negative Staphylococcus (GC 4547) (Staphylococcus sp.; broth dilution, strain GC 4547) | MIC Coagulase Negative Staphylococcus (GC 4548) (Staphylococcus sp.; broth dilution, strain GC 4548) | MIC Coagulase Negative Staphylococcus (GC 4551) (Staphylococcus sp.; broth dilution, strain GC 4551) | MIC Enterococcus avium (GC 4558) (Enterococcus sp.; Enterococcus avium (GC 4558)) | MIC Enterococcus faecalis (GC 4553) (Enterococcus sp.; [19]) | MIC Enterococcus faecium (GC 2243) (Enterococcus sp.; Enterococcus faecium (GC 2243)) | MIC Enterococcus faecium (GC 2243) (Enterococcus sp.; broth dilution, strain GC 2243) | MIC Enterococcus faecalis (GC 4553) (Enterococcus sp.; broth dilution, strain GC 4553) | MIC Enterococcus avium (GC 4558) (Enterococcus sp.; broth dilution, strain GC 4558)
2 µg/mL: MIC Coagulase Negative Staphylococcus (GC 4549) (Staphylococcus sp.; [5]) | MIC Coagulase Negative Staphylococcus (ID-3941) (Staphylococcus sp.; Coagulase Negative Staphylococcus (ID-3941)) | MIC Coagulase Negative Staphylococcus (GC 4549) (Staphylococcus sp.; broth dilution, strain GC 4549) | MIC Coagulase Negative Staphylococcus (ID-3941) (Staphylococcus sp.; broth dilution, strain ID-3941) | MIC Enterococcus faecium (GC 4557) (Enterococcus sp.; Enterococcus faecium (GC 4557)) | MIC Enterococcus faecium (GC 4557) (Enterococcus sp.; broth dilution, strain GC 4557)
64 µg/mL: MIC Escherichia coli (ATCC 25922) (Escherichia coli)

α-O-[(Heptylamino)carbonyl]-cyclo(glycyl-β-methylphenylalanyl-O-(4-O-hexopyranosylhexopyranosyl)tyrosyl-3-(2-iminoimidazolidin-4-yl)seryl-3-(3-hexopyranosyl-2-iminoimidazolidin-4-yl)serylseryl] [Example 253]
32 µg/mL: MIC Streptococcus agalactiae (GC 4564) (Streptococcus sp.; [1]) | MIC Streptococcus pyogenes (GC 4563) (Streptococcus sp.; Streptococcus pyogenes (GC 4563)) | MIC Streptococcus pyogenes (GC 4563) (Streptococcus sp.; broth dilution, strain GC 4563) | MIC Streptococcus agalactiae (GC 4564) (Streptococcus sp.; broth dilution, strain GC 4564) | MIC Coagulase Negative Staphylococcus (GC 6257) (Staphylococcus sp.; Coagulase Negative Staphylococcus (GC 6257)) | MIC Coagulase Negative Staphylococcus (GC 6257) (Staphylococcus sp.; broth dilution, strain GC 6257) | MIC Enterococcus faecium (GC 4557) (Enterococcus sp.; Enterococcus faecium (GC 4557)) | MIC Enterococcus faecium (GC 4557) (Enterococcus sp.; broth dilution, strain GC 4557)
64 µg/mL: MIC Coagulase Negative Staphylococcus (GC 4547) (Staphylococcus sp.; [3]) | MIC Coagulase Negative Staphylococcus (GC 4548) (Staphylococcus sp.; [4]) | MIC Coagulase Negative Staphylococcus (GC 4549) (Staphylococcus sp.; [5]) | MIC Staphylococcus aureus (GC 4541) (Staphylococcus sp.; [9]) | MIC Staphylococcus aureus (GC 4545) (Staphylococcus sp.; [12]) | MIC Staphylococcus aureus-SMITH (GC 4543) (Staphylococcus sp.; [13]) | MIC Staphylococcus haemolyticus (GC 4546) (Staphylococcus sp.; [14]) | MIC Staphylococcus aureus (GC 4541) (Staphylococcus sp.; broth dilution, strain GC 4541) | MIC Staphylococcus aureus-SMITH (GC 4543) (Staphylococcus sp.; broth dilution, strain GC 4543) | MIC Staphylococcus aureus (GC 4545) (Staphylococcus sp.; broth dilution, strain GC 4545) | MIC Staphylococcus haemolyticus (GC 4546) (Staphylococcus sp.; broth dilution, strain GC 4546) | MIC Coagulase Negative Staphylococcus (GC 4547) (Staphylococcus sp.; broth dilution, strain GC 4547) | MIC Coagulase Negative Staphylococcus (GC 4548) (Staphylococcus sp.; broth dilution, strain GC 4548) | MIC Coagulase Negative Staphylococcus (GC 4549) (Staphylococcus sp.; broth dilution, strain GC 4549) | MIC Enterococcus avium (GC 4558) (Enterococcus sp.; Enterococcus avium (GC 4558)) | MIC Enterococcus avium (GC 4558) (Enterococcus sp.; broth dilution, strain GC 4558)
8 µg/mL: MIC Streptococcus pneumoniae (GC 1894) (Streptococcus sp.; Streptococcus pneumoniae (GC 1894)) | MIC Streptococcus pneumoniae (GC 1894) (Streptococcus sp.; broth dilution, strain GC 1894)
2 µg/mL: MIC Escherichia coli (GC 4560) (Escherichia coli)
>64 µg/mL: MIC Escherichia coli (ATCC 25922) (Escherichia coli) | MIC Escherichia coli (GC 4559) (Escherichia coli) | MIC Coagulase Negative Staphylococcus (GC 4551) (Staphylococcus sp.; [6]) | MIC Staphylococcus aureus (ATCC 29213) (Staphylococcus sp.; [7]) | MIC Staphylococcus aureus (GC 1131) (Staphylococcus sp.; [8]) | MIC Staphylococcus aureus (GC 3051) (Staphylococcus sp.; Staphylococcus aureus (GC 3051)) | MIC Staphylococcus aureus (GC 3053) (Staphylococcus sp.; Staphylococcus aureus (GC 3053)) | MIC Staphylococcus aureus (GC 4542) (Staphylococcus sp.; [10]) | MIC Staphylococcus aureus (GC 4544) (Staphylococcus sp.; [11]) | MIC Staphylococcus aureus (ATCC 29213) (Staphylococcus sp.; [15]) | MIC Staphylococcus aureus (GC 1131) (Staphylococcus sp.; broth dilution, strain GC 1131) | MIC Staphylococcus aureus (GC 3051) (Staphylococcus sp.; broth dilution, strain GC 3051) | MIC Staphylococcus aureus (GC 3053) (Staphylococcus sp.; broth dilution, strain GC 3053) | MIC Staphylococcus aureus (GC 4542) (Staphylococcus sp.; broth dilution, strain GC 4542) | MIC Staphylococcus aureus (GC 4544) (Staphylococcus sp.; broth dilution, strain GC 4544) | MIC Coagulase Negative Staphylococcus (GC 4551) (Staphylococcus sp.; broth dilution, strain GC 4551) | MIC Enterococcus faecalis (ATCC 29212) (Enterococcus sp.; [16]) | MIC Enterococcus faecalis (GC 2242) (Enterococcus sp.; [17]) | MIC Enterococcus faecalis (GC 2691) (Enterococcus sp.; Enterococcus faecalis (GC 2691)) | MIC Enterococcus faecalis (GC 3059) (Enterococcus sp.; Enterococcus faecalis (GC 3059)) | MIC Enterococcus faecalis (GC 4552) (Enterococcus sp.; [18]) | MIC Enterococcus faecalis (GC 4553) (Enterococcus sp.; [19]) | MIC Enterococcus faecalis (GC 4554) (Enterococcus sp.; [20]) | MIC Enterococcus faecalis (GC 6189) (Enterococcus sp.; Enterococcus faecalis (GC 6189)) | MIC Enterococcus faecium (GC 2243) (Enterococcus sp.; Enterococcus faecium (GC 2243)) | MIC Enterococcus faecium (GC 4556) (Enterococcus sp.; Enterococcus faecium (GC 4556)) | MIC Enterococcus faecalis (ATCC 29212) (Enterococcus sp.; [21]) | MIC Enterococcus faecalis (GC 2242) (Enterococcus sp.; broth dilution, strain GC 2242) | MIC Enterococcus faecium (GC 2243) (Enterococcus sp.; broth dilution, strain GC 2243) | MIC Enterococcus faecalis (GC 2691) (Enterococcus sp.; broth dilution, strain GC 2691) | MIC Enterococcus faecalis (GC 3059) (Enterococcus sp.; broth dilution, strain GC 3059) | MIC Enterococcus faecalis (GC 4552) (Enterococcus sp.; broth dilution, strain GC 4552) | MIC Enterococcus faecalis (GC 4553) (Enterococcus sp.; broth dilution, strain GC 4553) | MIC Enterococcus faecalis (GC 4554) (Enterococcus sp.; broth dilution, strain GC 4554) | MIC Enterococcus faecium (GC 4556) (Enterococcus sp.; broth dilution, strain GC 4556) | MIC Enterococcus faecalis (GC 6189) (Enterococcus sp.; broth dilution, strain GC 6189)
16 µg/mL: MIC Streptococcus pneumoniae (ATCC 6301) (Streptococcus sp.; Streptococcus pneumoniae (ATCC 6301)) | MIC Streptococcus pneumoniae (GC 4565) (Streptococcus sp.; [2]) | MIC Streptococcus pneumoniae (ATCC 6301) (Streptococcus sp.; broth dilution, strain ATCC 6301) | MIC Streptococcus pneumoniae (GC 4565) (Streptococcus sp.; broth dilution, strain GC 4565)
